Literature values as cited in US20240180994A1 (priority 2021, published 2024).

Assays:
[1] = molecular target: SARS-CoV-2 protease 3CL pro (Severe acute respiratory syndrome coronavirus 2, UniProt P0DTD1)
[2] = tested on: HIV-luc/SARS pseudotyped virus; conditions: read-out: effective dose at 50% of inhibition (EC50%)
cathepsin L = cathepsin L (Homo sapiens, UniProt P07711)
[3] = molecular target: SARS-CoV-2 membrane (M) protein (Severe acute respiratory syndrome coronavirus 2, UniProt P0DTC5); conditions: modeling studies
TNF-α, IL-6 and IL-1β = conditions: daily oral 10-30 mg/kg for 4 weeks, aged rats
TNF-α = conditions: mouse, in vivo
[4] = tested on: TNF-α, IL-1β, MAPKs (p38); conditions: 100 mg/kg, spinal cord injury models

O=c1c(O)c(-c2ccc(O)cc2)oc2cc(O)cc(O)c12 [Kaempferol]
IC50 [1]: 116 µM

O=c1cc(-c2ccc(O)c(O)c2)oc2cc(O)cc(O)c12 [Luteolin]
EC50 [2]: 9.02 µM | EC50 (wild-type SARS-CoV; read-out: EC50% inhibition of cytopathic effect, wild-type SARS-CoV, MTT assay): 10.6 µM | EC50 values times less than cytotoxicity on the cells in vitro (wild-type SARS-CoV; relates to both EC50 values of luteolin): 15 times

O=c1c(O)c(-c2ccc(O)c(O)c2)oc2cc(O)cc(O)c12 [Quercetin]
cathepsin L inhibition (cathepsin L): inhibit cathepsin L

O=C(O)/C=C/c1ccc(O)c(O)c1 [caffeic acid]
affinity with M protein [3]: higher affinity with the M protein

CC(/C=C/C=C(\C)C(=O)O[C@@H]1O[C@H](CO[C@@H]2O[C@H](CO)[C@@H](O)[C@H](O)[C@H]2O)[C@@H](O)[C@H](O)[C@H]1O)=C\C=C\C=C(C)\C=C\C=C(/C)C(=O)O[C@@H]1O[C@H](CO[C@@H]2O[C@H](CO)[C@@H](O)[C@H](O)[C@H]2O)[C@@H](O)[C@H](O)[C@H]1O [crocin]
pro-inflammatory cytokines in renal tissue and serum (TNF-α, IL-6 and IL-1β): significantly reduced pro-inflammatory cytokines, TNF-α, IL-6 and IL-1β

COc1cc(/C=C/C(=O)O)ccc1O [ferulic acid]
affinity with M protein [3]: higher affinity with the M protein

COc1ccc([C@@H]2CC(=O)c3c(O)cc(O[C@@H]4O[C@H](CO[C@@H]5O[C@@H](C)[C@H](O)[C@@H](O)[C@H]5O)[C@@H](O)[C@H](O)[C@H]4O)cc3O2)cc1O [hesperidin]
TNF-α in LPS-treated mice (TNF-α): decease TNF-α in mice treated with LPS

CC1=C(C=O)C(C)(C)CC=C1 [safranal]
expression of inflammatory cytokines [4]: decreased the expression of the inflammatory cytokines TNF-α, IL-1β
